Assay results reported in patent US20190133997A1, “ARTEMISININ ANALOG, AND USE, METHOD, AND COMPOSITION FOR PROMOTING LIPID CATABOLISM AND IMPROVING SUGAR METABOLISM” (FUDAN UNIVERSITY, priority 2016, published 2019).

Legend:
[1] = tested on: obese mice induced by high-fat diet; test: Intraperitoneal artemether, fatty liver in obese mice induced by high-fat diet (HE staining); assay type: in vivo, Male C57BL/6J mice; details: intraperitoneal 20 mg/kg twice a week, eight weeks
Method: (§1) The mice were breeded in the SPF animal laboratory of the Laboratory Animal Center of Fudan University at a room temperature of 21° C.-23° C. with a 12-hour light/dark cycle. […] When the mice were grown to 8-week old, they were randomly divided into a control group and an administration group, with 8 mice in each group. While the mice were fed with a high-fat diet, artemether was injected intraperitoneally. Artemether for intraperitoneal injection was stored at 4° C. in coconut oil at a storage concentration of 6 mg/ml (20 mMol/L), and protected from light. Mice in administration group were injected with artemether at a dose of 20 mg/kg weight. Administration was twice a week for eight weeks. The mice were sacrificed by cervical dislocation, and liver tissues of mice were removed and fixed. The histological analysis for liver was commissioned by Shanghai Saige Biotech Co., Ltd., and the histological analysis process included tissue fixation, paraffin embedding, sectioning and HE staining.

[2] = Intraperitoneal artemether, glucose metabolism in healthy lean mice; assay type: in vivo, Male C57BL/6J mice; details: intraperitoneal 20 mg/kg twice a week, eight weeks
Method: The mice were breeded in the SPF animal laboratory of the Laboratory Animal Center of Fudan University at a room temperature of 21° C.-23° C. with a 12-hour light/dark cycle. When the mice were grown to 8-week old, they were randomly divided into a control group and an administration group, with 8 mice in each group. Artemether for intraperitoneal injection was stored at 4° C. in coconut oil at a storage concentration of 6 mg/ml (20 mMol/L), and protected from light. Mice in administration group were injected with artemether at a dose of 20 mg/kg weight, and mice in control group were injected with 100 μl coconut oil. Administration was twice a week for eight weeks.
The mice were fasted for 12-16 hours and injected intraperitoneally with glucose injection at a dose of […]. At 0 min, 30 min, 60 min, 90 min, and 120 min after injection, blood was collected from the tail vein, and blood glucose was measured with OneTouch ExtraEasy glucometer and OneTouch ExtraEasy blood glucose test strips and the results were recorded.
Insulin was injected intraperitoneally at a dose of 0.75 U/kg weight. At 0 min, 15 min, 30 min, 45 min and 60 min after injection, blood was collected from the tail vein, and blood glucose was measured.

high fat-fed mice [3] = test: Intraperitoneal artemether, cold exposure and UCP1 immunohistochemistry of subcutaneous fat in high fat-fed mice; assay type: in vivo, Male C57BL/6J mice; details: high-fat diet, intraperitoneal 20 mg/kg twice a week, eight weeks
Method: as §1, with “weeks. Mice were fasted and housed in a breeding box at 4° C. The rectal temperature was measured every 2 hours.” for “weeks.”, “dislocation after 6 hours,” for “dislocation,”, “the inguinal fat was” for “liver tissues of mice were”, “for histological analysis.” for “and fixed.”, “including tissue fixation, paraffin embedding, sectioning and immunohistochemistry experiment of UCP1” for “for liver”, “Ltd.” for “Ltd., and the histological analysis process included tissue fixation, paraffin embedding, sectioning and HE staining.”

[4] = Intraperitoneal artemether 20 mg/kg, liver damage in healthy mice (HE staining); assay type: in vivo, Male C57BL/6J mice
Method: The mice were breeded in the SPF animal laboratory of the Laboratory Animal Center of Fudan University at a room temperature of 21° C.-23° C. with a 12-hour light/dark cycle. When the mice were grown to 8-week old, they were randomly divided into a control group and an administration group, with 8 mice in each group. Mice in administration group were injected intraperitoneally with artemether. Artemether for intraperitoneal injection was stored at 4° C. in coconut oil at a storage concentration of 6 mg/ml (20 mMol/L), and protected from light. Mice in administration group were injected with artemether at a dose of 20 mg/kg weight. Mice in control group were injected 100 μl coconut oil. Administration was twice a week for eight weeks. The mice were sacrificed by cervical dislocation, and liver tissues of mice were removed and fixed. Liver tissue fixation, paraffin embedding, sectioning and HE staining was commissioned by Shanghai Saige Biotech Co., Ltd.

high fat-fed mice [5] = test: Subcutaneous artemether, adipose tissue in high fat-fed mice; assay type: in vivo, Male C57BL/6J mice; details: high-fat diet, subcutaneous injection, eight weeks
Method: The mice were breeded in the SPF animal laboratory of the Laboratory Animal Center of Fudan University at a room temperature of 21° C.-23° C. with a 12-hour light/dark cycle. […] When the mice were grown to 8-week old, they were randomly divided into a control group and an administration group, with 8 mice in each group. While the mice were fed with a high-fat diet, artemether was injected subcutaneously. Artemether was diluted in PBS at a concentration of […], and injected into bilateral inguinal region, with 200 μl being injected into each side. Mice in control group were injected with the same volume of PBS. Administration was continued for eight weeks. The mice were sacrificed by cervical dislocation and were dissected, and inguinal fat (Inguinal, subcutaneous fat), epididymal fat (Gonadal, visceral fat) and brown fat in the interscapular region (BAT, classic brown fat) were removed, weighed and fixed. The histological analysis of adipose tissue was commissioned by Shanghai Saige Biotech Co., Ltd. The histological analysis process included the steps of fixing, paraffin embedding, sectioning and HE staining.

ob/ob mice = test: Intraperitoneal artemether, fatty liver in diabetic ob/ob mice; assay type: in vivo, Male ob/ob mice; details: intraperitoneal 20 mg/kg twice a week, eight weeks
Method: Ob/ob mice were breeded in the SPF animal laboratory of the Laboratory Animal Center of Fudan University at a room temperature of 21° C.-23° C. with a 12-hour light/dark cycle. When the mice were grown to 4-week old, they were randomly divided into a control group and an administration group, with 4 mice in each group. Mice in administration group were injected intraperitoneally with artemether. Artemether for intraperitoneal injection was stored at 4° C. in coconut oil at a storage concentration of 6 mg/ml (20 mMol/L), and protected from light. Ob/ob mice in administration group were injected with artemether at a dose of 20 mg/kg weight. Administration was twice a week for eight weeks. The mice were sacrificed by cervical dislocation, and liver tissues of mice were removed, fixed and paraffin embedded. The histological analysis was commissioned by Shanghai Saige Biotech Co., Ltd.

CO[C@H]1O[C@@H]2O[C@@]3(C)CC[C@H]4[C@H](C)CC[C@@H]([C@H]1C)[C@@]24OO3 [artemether]
morphology of the liver cells [1]: almost normal | lipid in the liver (fatty liver) ([1]; control: obvious lipid accumulation): only a small amount of lipid | glucose tolerance curve [2]: did not differ from that of mice in control group | insulin tolerance curve [2]: did not differ from that of mice in control group | body temperature in an environment of 4° C. (high fat-fed mice [3]): significantly higher than that of mice in control group | UCP1 expression in subcutaneous fat (immunohistochemistry) (high fat-fed mice [3]; after 6 hours at 4° C.): exhibited significant UCP1 expression | morphology of liver cells ([4]; healthy lean mice, intraperitoneal 20 mg/kg twice a week, eight weeks): normal, and had no difference from that of mice in control group | hepatotoxicity ([4]; intraperitoneal 20 mg/kg weight twice a week for eight weeks): no hepatotoxicity | adipocyte size (sectioning and HE staining) (high fat-fed mice [5]): significantly smaller than that of mice in control group | volume of adipose tissue (inguinal fat, epididymal fat and brown fat) (high fat-fed mice [5]): significantly smaller than that of mice in control group | weight of adipose tissue (inguinal fat, epididymal fat and brown fat) (high fat-fed mice [5]): significantly smaller than that of mice in control group | fatty liver of ob/ob mice (HE staining) (ob/ob mice): significantly relieved
